Test results reported in patent US20060147992A1, “Method for detection of bioactive peptides” (priority 2002, published 2006).

System: platelets
Test: luminometric determination of collagen-induced ATP release from platelets
Type: cell-based
Conditions: platelet rich plasma, 2 μg/ml collagen, RGDS 30 μM; p<0.002 versus collagen alone
Text: Miniaturised (96 well format) high-throughput screening assays capable of assessing platelet activation that are suitable for screening potential anti-thrombotic agents have been developed. The primary assay is based on the phenomenon that platelet activation results in a substantial release of ATP from dense granules. Released ATP is then rapidly quantitated in a plate reader using bioluminescence and is proportional to the extent of platelet activation.
Platelet rich plasma was stimulated by automated injection of 2 μg/ml collagen in the presence or absence of commercially available RGDS (30 μM). Relative light output was then measured automatically in a BMG Fluostar plate reader.
Fibrinogen was digested with either Lys-C (A) or trypsin (B) prior to fractionation as described in FIGS. 2 and 3.

RGDS
inhibition of collagen-induced ATP release: 30%
